From patent US7265129B2, “Anti-infective biaryl compounds” (priority 2002, dated 2007)

Tests used:
[1] = tested on: S. aureus ATCC 27660; assay: MIC, NCCLS broth microdilution, S. aureus MRSA; type: cell-based, Staphylococcus aureus; details: S. aureus ATCC 27660, methicillin resistant strain (MRSA)
Description: (§1) It vitro biological activity data were collected for a variety of microorganisms, including Bacillus cereus (ATCC 11778), Staphylococcus aureus (ATCC 33591; ATCC 27660, a methicillin resistant strain (MRSA); ATCC 13709, a methicillin sensitive strain (MSSA)), Enterococcus faecalis (ATCC 29212), and Streptococcus pneumoniae (ATCC 49619). Additionally, antifungal activity data were collected for Candida albicans (ATCC 38247).
(§2) Compounds according to this invention were screened for their in vitro activities against selected species of bacteria and fungi. The minimal inhibition concentration (MIC) of these compounds was determined using the National Committee for Clinical Laboratory Standards (NCCLS) broth microdilution assay in microtiter plates, as set forth in: (1) the guidelines of the National Committee for Clinical Laboratory Standards (NCCLS) Document M7-A4 (NCCLS, 1997); (2) the guidelines of the National Committee for Clinical Laboratory Standards (NCCLS) Document M11-A4 (NCCLS, 1997); and (3) the guidelines and reference method of the National Committee for Clinical Laboratory Standards (NCCLS) Document M27-T (NCCLS, 1995). For antifungal assays, the method recommended in Murray, P R., 1995 Manual of Clinical Microbiology (ASM Press, Washington, D.C.), was employed.

[2] = tested on: S. aureus ATCC 33591; assay: MIC, NCCLS broth microdilution, S. aureus ATCC 33591; type: cell-based, Staphylococcus aureus
Description: as §1, §2

[3] = tested on: E. faecalis ATCC 29212; assay: MIC, NCCLS broth microdilution, E. faecalis; type: cell-based, Enterococcus faecalis
Description: as §1, §2

[4] = tested on: S. pneumoniae ATCC 49619; assay: MIC, NCCLS broth microdilution, S. pneumoniae; type: cell-based, Streptococcus pneumoniae
Description: as §1, §2

[5] = tested on: C. albicans ATCC 38247; assay: MIC, antifungal assay, C. albicans; type: cell-based, Candida albicans
Description: as §1, §2

[6] = tested on: B. cereus ATCC 11778; assay: MIC, NCCLS broth microdilution, B. cereus; type: cell-based, Bacillus cereus
Description: as §1, §2

[7] = tested on: S. aureus ATCC 13709; assay: MIC, NCCLS broth microdilution, S. aureus MSSA; type: cell-based, Staphylococcus aureus; details: S. aureus ATCC 13709, methicillin sensitive strain (MSSA)
Description: as §1, §2

| Structure (SMILES) | Minimum Inhibitory Concentration (MIC), organism E [1] | Minimum Inhibitory Concentration (MIC), organism F [2] | Minimum Inhibitory Concentration (MIC), organism C [3] | Minimum Inhibitory Concentration (MIC), organism G [4] | Minimum Inhibitory Concentration (MIC), organism B [5] | Minimum Inhibitory Concentration (MIC), organism A [6] | Minimum Inhibitory Concentration (MIC), organism D [7] |
| --- | --- | --- | --- | --- | --- | --- | --- |
| CN(C)CCCn1cc(NC(=O)c2cc3ccccc3cn2)cc1C(=O)Nc1cc(-c2nc3ncccc3[nH]2)n(C)c1 [Compound A-12] | +++ (MIC ≦ 4 μg/mL) | +++ (MIC ≦ 4 μg/mL) | +++ (MIC ≦ 4 μg/mL) | +++ (MIC ≦ 4 μg/mL) | >32 µg/mL | +++ (MIC ≦ 4 μg/mL) | +++ (MIC ≦ 4 μg/mL) |
| Cn1cc(NC(=O)c2cc(NC(=O)c3sccc3Cl)cn2CCC[n+]2ccccc2)cc1-c1nc2ccccc2[nH]1 [Compound A-56] | + (12 ≦ MIC ≦ 32 μg/mL) | + (12 ≦ MIC ≦ 32 μg/mL) | >32 µg/mL | >32 µg/mL | >32 µg/mL | >32 µg/mL | + (12 ≦ MIC ≦ 32 μg/mL) |
| CN(C)CCCn1cc(NC(=O)c2ccc(Cl)cc2F)cc1C(=O)Nc1cc(-c2nc3cccnc3[nH]2)n(C)c1 [Compound A-39] | +++ (MIC ≦ 4 μg/mL) | +++ (MIC ≦ 4 μg/mL) | +++ (MIC ≦ 4 μg/mL) | +++ (MIC ≦ 4 μg/mL) | + (12 ≦ MIC ≦ 32 μg/mL) | +++ (MIC ≦ 4 μg/mL) | +++ (MIC ≦ 4 μg/mL) |
| Cn1cc(NC(=O)c2cc(NC(=O)c3ccc(Cl)cc3F)cn2CCCN2CCC(O)CC2)cc1-c1nc2cccnc2[nH]1 [Compound A-42] | +++ (MIC ≦ 4 μg/mL) | +++ (MIC ≦ 4 μg/mL) | +++ (MIC ≦ 4 μg/mL) | +++ (MIC ≦ 4 μg/mL) | + (12 ≦ MIC ≦ 32 μg/mL) | +++ (MIC ≦ 4 μg/mL) | +++ (MIC ≦ 4 μg/mL) |
| Cn1cc(NC(=O)c2cc3ccccc3cn2)cc1C(=O)Nc1cc(-c2nc3ccc(N)cc3[nH]2)n(C)c1 [Compound A-8] | +++ (MIC ≦ 4 μg/mL) | +++ (MIC ≦ 4 μg/mL) | +++ (MIC ≦ 4 μg/mL) | +++ (MIC ≦ 4 μg/mL) | >32 µg/mL | ++ (4 < MIC < 12 μg/mL) | +++ (MIC ≦ 4 μg/mL) |
| CN(C)CCCn1cc(NC(=O)c2sccc2Cl)cc1C(=O)Nc1cc(-c2nc3ncncc3[nH]2)n(C)c1 [Compound A-63] | + (12 ≦ MIC ≦ 32 μg/mL) | + (12 ≦ MIC ≦ 32 μg/mL) | + (12 ≦ MIC ≦ 32 μg/mL) | +++ (MIC ≦ 4 μg/mL) | >32 µg/mL | >32 µg/mL | + (12 ≦ MIC ≦ 32 μg/mL) |
| Cn1cc(NC(=O)c2sccc2Cl)cc1C(=O)Nc1cc(-c2nc3ccccc3[nH]2)n(C)c1 [Compound A-47] | +++ (MIC ≦ 4 μg/mL) | +++ (MIC ≦ 4 μg/mL) | +++ (MIC ≦ 4 μg/mL) | +++ (MIC ≦ 4 μg/mL) | + (12 ≦ MIC ≦ 32 μg/mL) | +++ (MIC ≦ 4 μg/mL) | +++ (MIC ≦ 4 μg/mL) |
| Cn1cc(NC(=O)c2cc(NC(=O)c3sccc3Cl)cn2CCCN(CCO)CCO)cc1-c1nc2ccccc2[nH]1 [Compound A-55] | ++ (4 < MIC < 12 μg/mL) | ++ (4 < MIC < 12 μg/mL) | + (12 ≦ MIC ≦ 32 μg/mL) | ++ (4 < MIC < 12 μg/mL) | >32 µg/mL | + (12 ≦ MIC ≦ 32 μg/mL) | + (12 ≦ MIC ≦ 32 μg/mL) |
| Cn1cc(NC(=O)c2cc(NC(=O)c3sc4ccccc4c3Cl)cn2CCCN2CCOCC2)cc1-c1nc2ccccc2[nH]1 [Compound A-26] | +++ (MIC ≦ 4 μg/mL) | +++ (MIC ≦ 4 μg/mL) | +++ (MIC ≦ 4 μg/mL) | +++ (MIC ≦ 4 μg/mL) | >32 µg/mL | +++ (MIC ≦ 4 μg/mL) | +++ (MIC ≦ 4 μg/mL) |
| CN(C)CCCn1cc(NC(=O)c2ccc(F)cc2F)cc1C(=O)Nc1cc(-c2nc3ncncc3[nH]2)n(C)c1 [Compound A-19] | + (12 ≦ MIC ≦ 32 μg/mL) | + (12 ≦ MIC ≦ 32 μg/mL) | ++ (4 < MIC < 12 μg/mL) | +++ (MIC ≦ 4 μg/mL) | >32 µg/mL | + (12 ≦ MIC ≦ 32 μg/mL) | + (12 ≦ MIC ≦ 32 μg/mL) |
| Cn1cc(NC(=O)c2cc(NC(=O)c3ccc(Cl)cc3F)cn2CCCN2CCSCC2)cc1-c1nc2ccccc2[nH]1 [Compound A-33] | +++ (MIC ≦ 4 μg/mL) | +++ (MIC ≦ 4 μg/mL) | +++ (MIC ≦ 4 μg/mL) | +++ (MIC ≦ 4 μg/mL) | >32 µg/mL | +++ (MIC ≦ 4 μg/mL) | +++ (MIC ≦ 4 μg/mL) |
| Cn1cc(NC(=O)c2cc(NC(=O)c3sc4ccccc4c3Cl)cn2CCCN2CCC(F)(F)CC2)cc1-c1nc2ccccc2[nH]1 [Compound A-25] | + (12 ≦ MIC ≦ 32 μg/mL) | + (12 ≦ MIC ≦ 32 μg/mL) | + (12 ≦ MIC ≦ 32 μg/mL) | ++ (4 < MIC < 12 μg/mL) | >32 µg/mL | >32 µg/mL | + (12 ≦ MIC ≦ 32 μg/mL) |
| CN(C)CCCn1cc(NC(=O)c2ccc(F)cc2F)cc1C(=O)Nc1cc(-c2nc3ccncc3[nH]2)n(C)c1 [Compound A-18] | +++ (MIC ≦ 4 μg/mL) | +++ (MIC ≦ 4 μg/mL) | +++ (MIC ≦ 4 μg/mL) | +++ (MIC ≦ 4 μg/mL) | >32 µg/mL | + (12 ≦ MIC ≦ 32 μg/mL) | + (12 ≦ MIC ≦ 32 μg/mL) |
| CC1CCN(CCCn2cc(NC(=O)c3ccc(Cl)cc3F)cc2C(=O)Nc2cc(-c3nc4cccnc4[nH]3)n(C)c2)CC1 [Compound A-41] | +++ (MIC ≦ 4 μg/mL) | +++ (MIC ≦ 4 μg/mL) | +++ (MIC ≦ 4 μg/mL) | +++ (MIC ≦ 4 μg/mL) | >32 µg/mL | +++ (MIC ≦ 4 μg/mL) | +++ (MIC ≦ 4 μg/mL) |
| Cn1cc(NC(=O)c2cc(NC(=O)c3sccc3Cl)cn2CCCN2CCC(O)CC2)cc1-c1nc2ccccc2[nH]1 [Compound A-53] | +++ (MIC ≦ 4 μg/mL) | +++ (MIC ≦ 4 μg/mL) | ++ (4 < MIC < 12 μg/mL) | +++ (MIC ≦ 4 μg/mL) | + (12 ≦ MIC ≦ 32 μg/mL) | +++ (MIC ≦ 4 μg/mL) | +++ (MIC ≦ 4 μg/mL) |
| CN(C)CCCn1cc(NC(=O)c2sc3ccccc3c2Cl)cc1C(=O)Nc1cc(-c2nc3ccncc3[nH]2)n(C)c1 [Compound A-29] | +++ (MIC ≦ 4 μg/mL) | +++ (MIC ≦ 4 μg/mL) | +++ (MIC ≦ 4 μg/mL) | +++ (MIC ≦ 4 μg/mL) | ++ (4 < MIC < 12 μg/mL) | +++ (MIC ≦ 4 μg/mL) | +++ (MIC ≦ 4 μg/mL) |
